The values that follow come from patent US11524938B2, “Aromatic sulfonamide derivatives” (Bayer Pharma Aktiengesellschaft, priority 2016, dated 2022).

This experiment concerns the target T1, human P2X4 (Homo sapiens, UniProt Q99571).
T1 sequence (Q99571 1-388): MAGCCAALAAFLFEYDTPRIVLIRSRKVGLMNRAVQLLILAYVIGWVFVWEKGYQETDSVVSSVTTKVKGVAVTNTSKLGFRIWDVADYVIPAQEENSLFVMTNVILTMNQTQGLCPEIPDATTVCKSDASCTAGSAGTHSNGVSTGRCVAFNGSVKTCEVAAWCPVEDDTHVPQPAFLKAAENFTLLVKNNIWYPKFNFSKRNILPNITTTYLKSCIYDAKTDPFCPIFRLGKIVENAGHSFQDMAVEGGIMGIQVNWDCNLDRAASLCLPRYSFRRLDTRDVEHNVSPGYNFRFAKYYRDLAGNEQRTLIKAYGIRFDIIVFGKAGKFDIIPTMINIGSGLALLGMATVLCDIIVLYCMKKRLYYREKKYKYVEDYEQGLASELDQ
The experiment can be described thus: Human P2X4 HEK Cell FLIPR Assay. It counts as cell-based. The settings on record: agonist Bz-ATP at EC80; for Emax: HEK293, HEK293 cells, percentage of maximal inhibition, read-out: Human P2X4 HEK Cells (FLIPR Assay) avg Efficacy [%]; for IC50: HEK293 cells, individual values listed where some fall outside detection range. In short, it runs like this: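 HEK293 cells stably expressing human P2X4, Fluo8-AM loaded 30 min at 37° C, then compound 30 min at room temperature (0.5% DMSO, pH 7.4 buffer with 1.8 mM CaCl2). Bz-ATP at its daily-determined EC80 added; calcium fluorescence read over 120 sec; IC50 from peak RFU normalized to agonist control, triplicates.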

On to `Cn1cc(-c2ccc(NC(=O)Cc3c(F)cccc3Cl)cc2S(N)(=O)=O)cn1` [Example 339, 2-(2-Chloro-6-fluorophenyl)-N-[4-(1-methyl-1H-pyrazol-4-yl)-3-sulfamoylphenyl]-acetamide], for which the Emax is 92% and the IC50 amounted to 33 nM. Consider `CC(C)(O)c1cc(F)cc(-c2ccc(NC(=O)Cc3ccccc3Cl)cc2S(N)(=O)=O)c1` [Example 340, 2-(2-Chlorophenyl)-N-[3′-fluoro-5′-(2-hydroxypropan-2-yl)-2-sulfamoylbiphenyl-4-yl]acetamide], for which the Emax worked out at 89% and the IC50 is 34 nM. Turning to `COc1cncc(-c2ccc(NC(=O)Cc3ccccc3Cl)cc2S(N)(=O)=O)c1` [Example 341, 2-(2-Chlorophenyl)-N-[4-(5-methoxypyridin-3-yl)-3-sulfamoylphenyl]acetamide], the Emax turned out to be 86% and the IC50 is 41 nM. As for `CC(C)(O)c1cccc(-c2ccc(NC(=O)Cc3ccccc3Cl)cc2S(N)(=O)=O)c1` [Example 342, 2-(2-Chlorophenyl)-N-[3′-(2-hydroxypropan-2-yl)-2-sulfamoylbiphenyl-4-yl]acetamide], the Emax came out at 101% and the half-maximal inhibitory concentration (IC50) came to 41 nM. As to `CC(C)n1cc(-c2ccc(NC(=O)Cc3ccccc3F)cc2S(N)(=O)=O)cn1` [Example 343, 2-(2-Fluorophenyl)-N-{4-[1-(propan-2-yl)-1H-pyrazol-4-yl]-3-sulfamoylphenyl}-acetamide], the Emax worked out at 101% and the IC50 was determined as 42 nM.

Consider `NS(=O)(=O)c1cc(NC(=O)Cc2ccccc2F)ccc1-c1cnn(C2CC2)c1` [Example 344, N-[4-(1-Cyclopropyl-1H-pyrazol-4-yl)-3-sulfamoylphenyl]-2-(2-fluorophenyl)-acetamide], for which the Emax worked out at 102% and the IC50 turned out to be 44 nM. On to `NS(=O)(=O)c1cc(NC(=O)Cc2ccccc2Cl)ccc1-c1cnn(C2CCCCO2)c1` (stereo not shown) [Example 345, 2-(2-Chlorophenyl)-N-{3-sulfamoyl-4-[1-(tetrahydro-2H-pyran-2-yl)-1H-pyrazol-4-yl]phenyl}acetamide], for which the Emax came out at 93% and the IC50 is 46 nM. Regarding `CC(C)(C)n1cc(-c2ccc(NC(=O)Cc3ccccc3F)cc2S(N)(=O)=O)cn1` [Example 346, N-[4-(1-tert-Butyl-1H-pyrazol-4-yl)-3-sulfamoylphenyl]-2-(2-fluorophenyl)acetamide], the Emax came out at 105% and the IC50 came out at 46 nM. In the case of `CC(C)(O)c1cc(F)cc(-c2ccc(NC(=O)Cc3ccccc3F)cc2S(N)(=O)=O)c1` [Example 347, N-[3′-Fluoro-5′-(2-hydroxypropan-2-yl)-2-sulfamoylbiphenyl-4-yl]-2-(2-fluorophenyl)acetamide], the Emax turned out to be 89% and the IC50 was determined as 85 nM. For `NS(=O)(=O)c1cc(NC(=O)Cc2ccccc2F)ccc1-c1cnn(C2CCCC2)c1` [Example 348, N-[4-(1-Cyclopentyl-1H-pyrazol-4-yl)-3-sulfamoylphenyl]-2-(2-fluorophenyl)-acetamide] the same measures were 96% and 47 nM.

In the case of `NS(=O)(=O)c1cc(NC(=O)Cc2ccccc2Cl)ccc1-c1cnn(C2CC2)c1` [Example 349, 2-(2-Chlorophenyl)-N-[4-(1-cyclopropyl-1H-pyrazol-4-yl)-3-sulfamoylphenyl]acetamide], the Emax amounted to 99%.

For the compound `COCCn1cc(-c2ccc(NC(=O)Cc3c(F)cccc3Cl)cc2S(N)(=O)=O)cn1` [Example 350, 2-(2-Chloro-6-fluorophenyl)-N-{4-[1-(2-methoxyethyl)-1H-pyrazol-4-yl]-3-sulfamoylphenyl}acetamide], the Emax was 87% and the half-maximal inhibitory concentration (IC50) came to 49 nM. Consider `Cc1cc(-c2ccc(NC(=O)Cc3ccccc3Cl)cc2S(N)(=O)=O)n(C)n1` [Example 351, 2-(2-Chlorophenyl)-N-[4-(1,3-dimethyl-1H-pyrazol-5-yl)-3-sulfamoylphenyl]acetamide], for which the Emax worked out at 88% and the IC50 was 51 nM. Consider `NS(=O)(=O)c1cc(NC(=O)Cc2ccccc2Cl)ccc1-c1ccc(Cl)cc1` [Example 352, 2-(2-Chlorophenyl)-N-(4′-chloro-2-sulfamoylbiphenyl-4-yl)acetamide], for which the Emax was 91% and the IC50 turned out to be 54 nM. In the case of `Cn1nc(C(F)(F)F)cc1-c1ccc(NC(=O)Cc2ccccc2Cl)cc1S(N)(=O)=O` [Example 353, 2-(2-Chlorophenyl)-N-{4-[1-methyl-3-(trifluoromethyl)-1H-pyrazol-5-yl]-3-sulfamoylphenyl}acetamide], the Emax was 87% and the IC50 was 57 nM. For the compound `NS(=O)(=O)c1cc(NC(=O)Cc2ccccc2Cl)ccc1-c1cccnc1` [Example 354, 2-(2-Chlorophenyl)-N-[4-(pyridin-3-yl)-3-sulfamoylphenyl]acetamide], the Emax is 92% and the IC50 came out at 60 nM. On to `Cn1cc(-c2ccc(NC(=O)Cc3ccccc3Cl)cc2S(N)(=O)=O)c(C(F)(F)F)n1` [Example 355, 2-(2-Chlorophenyl)-N-{4-[1-methyl-3-(trifluoromethyl)-1H-pyrazol-4-yl]-3-sulfamoylphenyl}acetamide], for which the Emax was found to be 76% and the IC50 turned out to be 62 nM. For `NS(=O)(=O)c1cc(NC(=O)Cc2ccccc2Cl)ccc1-c1cccc(Cl)c1` [Example 356, 2-(2-Chlorophenyl)-N-(3′-chloro-2-sulfamoylbiphenyl-4-yl)acetamide] the same measures were 96% and 63 nM. For the compound `NS(=O)(=O)c1cc(NC(=O)Cc2ccccc2Cl)ccc1-c1cnn(CC2CC2(Cl)Cl)c1` (stereo not shown) [Example 357, 2-(2-Chlorophenyl)-N-(4-{1-[(2,2-dichlorocyclopropyl)methyl]-1H-pyrazol-4-yl}-3-sulfamoylphenyl)acetamide], the Emax came to 87% and the IC50 came to 71 nM.

For the compound `Cc1nn(C)cc1-c1ccc(NC(=O)Cc2ccccc2Cl)cc1S(N)(=O)=O` [Example 358, 2-(2-Chlorophenyl)-N-[4-(1,3-dimethyl-1H-pyrazol-4-yl)-3-sulfamoylphenyl]acetamide], the Emax was determined as 88% and the IC50 worked out at 74 nM. As to `CC(C)n1cc(-c2ccc(NC(=O)Cc3ccccc3Cl)cc2S(N)(=O)=O)cn1` [Example 359, 2-(2-Chlorophenyl)-N-{4-[1-(propan-2-yl)-1H-pyrazol-4-yl]-3-sulfamoylphenyl}-acetamide], the Emax worked out at 84% and the IC50 was found to be 77 nM.

Take `Cn1cc(-c2ccc(NC(=O)Cc3ccccc3Cl)cc2S(N)(=O)=O)cn1` [Example 360, 2-(2-Chlorophenyl)-N-[4-(1-methyl-1H-pyrazol-4-yl)-3-sulfamoylphenyl]acetamide]: the Emax was 93%.

As to `CC(C)(C)C(O)Cn1cc(-c2ccc(NC(=O)Cc3ccccc3Cl)cc2S(N)(=O)=O)cn1` (stereo not shown) [Example 361, 2-(2-Chlorophenyl)-N-{4-[1-(2-hydroxy-3,3-dimethylbutyl)-1H-pyrazol-4-yl]-3-sulfamoylphenyl}acetamide], the Emax came to 83% and the IC50 was found to be 97 nM. Turning to `NS(=O)(=O)c1cc(NC(=O)Cc2ccccc2F)ccc1-c1cncc(F)c1` [Example 362, 2-(2-Fluorophenyl)-N-[4-(5-fluoropyridin-3-yl)-3-sulfamoylphenyl]acetamide], the Emax turned out to be 78% and the IC50 amounted to 102 nM. For `Cc1c(-c2ccc(NC(=O)Cc3ccccc3Cl)cc2S(N)(=O)=O)cnn1-c1ccccc1` [Example 363, 2-(2-Chlorophenyl)-N-[4-(5-methyl-1-phenyl-1H-pyrazol-4-yl)-3-sulfamoylphenyl]-acetamide] the same measures were 110% and 108 nM.

Consider `CN(C)CCNC(=O)c1cccc(-c2ccc(NC(=O)Cc3ccccc3Cl)cc2S(N)(=O)=O)c1` [Example 364, 4′-{[(2-Chlorophenyl)acetyl]amino}-N-[2-(dimethylamino)ethyl]-2′-sulfamoylbiphenyl-3-carboxamide], for which the Emax is 77% and the IC50 is 715 nM. Consider `NS(=O)(=O)c1cc(NC(=O)Cc2ccccc2Cl)ccc1-c1cnn2cccnc12` [Example 365, 2-(2-Chlorophenyl)-N-[4-(pyrazolo[1,5-a]pyrimidin-3-yl)-3-sulfamoylphenyl]acetamide], for which the Emax was determined as 89% and the IC50 stood at 113 nM. With `NS(=O)(=O)c1cc(NC(=O)Cc2ccccc2Cl)ccc1-c1cncc(C(=O)N2CCCC2)c1` [Example 366, 2-(2-Chlorophenyl)-N-{4-[5-(pyrrolidin-1-ylcarbonyl)pyridin-3-yl]-3-sulfamoylphenyl}acetamide], the Emax worked out at 97% and the IC50 was found to be 128 nM. On to `NS(=O)(=O)c1cc(NC(=O)Cc2ccccc2Cl)ccc1-c1cn[nH]c1` [Example 367, 2-(2-Chlorophenyl)-N-[4-(1H-pyrazol-4-yl)-3-sulfamoylphenyl]acetamide], for which the Emax stood at 83% and the IC50 turned out to be 131 nM. `Cn1nc(C(F)(F)F)cc1-c1ccc(NC(=O)Cc2ccccc2F)cc1S(N)(=O)=O` [Example 368, 2-(2-Fluorophenyl)-N-{4-[1-methyl-3-(trifluoromethyl)-1H-pyrazol-5-yl]-3-sulfamoylphenyl}acetamide]: the Emax turned out to be 100% and the IC50 was found to be 133 nM.
